Experiment [1] relates to CD24^−/CD44^+‐breast CSCs xenotransplanted tumors. The experiment can be described thus: Preclinical orthotopic xenograft murine tumor model (tumor size, weight, H&E histology). It counts as in vivo, C57BL/6 mice. Here is the method: (§1) Animal studies have been carried out with the prior approval of the Institutional Animal Ethics Committee (IICT/IAEC/025/2023). C57BL/6 female mice of age 6–8 weeks (N = 35) were initially immunosuppressed with cyclophosphamide (50 mg/kg of body weight, i.p) on alternate days for 2 weeks. For generating a preclinical orthotopic xenograft tumor model, 2 × 10^6 GFP expressing sorted stable CD24^+‐breast cancer cells and CD24^−/CD44^+‐breast CSCs were orthotopically xeno‐transplanted subcutaneously at the fourth mammary fat pad of immune‐suppressed mice (n = 5/group). Subsequently, intratumoral administration of Doxorubicin at a low dose (2.5 mg/kg of body weight), high dose (10 mg/kg of body weight), and/or combinatorial treatment of the potent EGFR inhibitor, compound 1e (50 mg/kg of body weight) or the commercial EGFR inhibitor, PD153035 (50 mg/kg of body weight) with a low dose of doxorubicin was performed to the palpable tumors of breast CSCs at day‐3 post‐transplantation.
Euthanization of mice was performed on day 14 post‐transplantation and tumor tissues were collected for histological and immunohistochemical analysis. Histological differences in tumor tissues were evaluated using hematoxylin and eosin staining (H&E).[28], [30]

Experiment [2] has as its system CD44, p‐EGFR, p‐JNK, p‐p38 in tumor tissue. Put plainly: Immunohistochemical analysis of tumor tissue (colocalization with GFP, Pearson's correlation coefficient). It counts as in vivo, C57BL/6 mice. The method, then: as §1
Immunohistochemical analysis was performed by immunostaining the tissue serial sections with primary antibodies against GFP, CD44, p‐EGFR, p‐JNK, and p‐p38 (CST, USA) followed by alexafluor‐488/555 conjugated secondary antibodies (R&D systems, USA) and mounting medium containing DAPI.[28], [29] Images were captured using a confocal microscope (Olympus FV10i, Tokyo, Japan). Pearson's correlation coefficient was utilized to determine the co‐localization of GFP/CD44, GFP/p‐EGFR, GFP/p‐JNK, and GFP/p‐p38 (Table. ST3).

The test system of experiment [3] is MDA‐MB‐231. The experiment can be described thus: Cell migration (chemotaxis), Boyden-Chamber assay. The following applies: Doxorubicin 0.01 μM + compound 5 μM (PD153035 10 μM) vs 10% FBS and Doxorubicin alone. It counts as cell-based, human. The method, then:
(§2) TNBC cell lines—MDA‐MB‐231, MDA‐MB‐468, and the sorted CD24^+‐breast cancer cells, and CD24^−/CD44^+‐breast CSC populations from MDA‐MB‐231 [6] were seeded at a density of 1 × 10^6 cells/well to evaluate their migratory potential by Boyden‐Chamber assay. […] At the end of the treatment period, the cells were plated at a density of 5 × 10^3 cells/well in the upper chamber of the Boyden chamber assembly and 10% FBS in the lower chamber was used as a chemoattractant. Separately, the cells in the upper chamber were treated with Doxorubicin (0.01–0.1 μM) alone or with the potential EGFR inhibitors (compounds—1c, 1e, 1g, 1h, 1j, and 1k (5 μM) based on their low IC50 values) or a commercial EGFR inhibitor, PD153035 (10 μM) and incubated for 4 h followed by fixation and staining as described previously.[28], [29]

In experiment [4] the test system is MDA‐MB‐468. The experiment can be described thus: Cell migration (chemotaxis), Boyden-Chamber assay. It counts as cell-based, human. The following applies: Doxorubicin 0.01 μM + compound 5 μM (PD153035 10 μM) vs 10% FBS and Doxorubicin alone. Here is the method: as §2
Experiment [5] has as its system MDA‐MB‐468. More on the design: method as in PMID 28398698. The note with it: unit not printed in the sentence (Table 1 in μM); read-out: IC50 against MDA‐MB‐468; cited from earlier work.
For experiment [6], the system named is Bax and Cytochrome‐C in MDA‐MB‐231 cells. Put plainly: Gene expression of apoptotic genes, semi-quantitative RT-PCR. It counts as cell-based, human. The following applies: MDA-MB-231, doxorubicin + compound 5 μM, 24 h. The method, then:
Briefly, the cells were incubated at 37°C with serum starvation followed by culturing as described above. […] Briefly, the template RNA (1 μg) was utilized for cDNA synthesis using a First‐strand cDNA synthesis kit (Thermo Scientific, USA) according to the manufacturer's protocol. Thermal cycler (Mastercycler® nexus, Eppendorf) was used for the amplification of the expression of apoptotic genes—Bax, Bcl2, Cytochrome‐C, and target gene EGFR with the help of Dream Taq DNA Polymerase PCR Master Mix (Thermo Scientific, USA) along with human gene‐specific forward and reverse primer sequences of the apoptotic genes and EGFR (Table ST1). The expression of the target genes was normalized to the Eukaryotic 18S rRNA.

Experiment [7] deals with MDA‐MB‐231. More on the design: method as in PMID 28398698. The following applies: unit not printed in the sentence (Table 1 in μM); read-out: IC50 against MDA‐MB‐231; cited from earlier work.
In experiment [8] the test system is human CD44, ALDH1A1, Fibronectin, N‐Cadherin, Vimentin in tumor tissue. The experiment can be described thus: qRT-PCR of human CSC/EMT genes in tumor tissues. It counts as in vivo, C57BL/6 mice. The note with it: with doxorubicin low dose vs low dose doxorubicin alone. Here is the method: Additionally, total RNA was isolated from tumor tissues and utilized for cDNA synthesis (Thermo Scientific, Massachusetts, USA). To determine the transcriptional regulation of expression of EMT genes in tumor tissues subjected to various treatment regimes, quantitative real‐time PCR (qRT‐PCR) analysis was performed as described previously[28] using human gene‐specific forward and reverse primers of EMT genes. Amplification of Eukaryotic 18S rRNA served as an internal control and was utilized to calculate the fold change in expression.[29]
as §1

In the case of `COc1cc2ncnc(Nc3cccc(Br)c3)c2cc1OC` [PD153035, reference compound], in experiment [1] (50 mg/kg + low dose doxorubicin 2.5 mg/kg, CSC xenograft), the “tumorigenicity (H&E histology)” value is reported as “significant decrease”. Moreover, in experiment [1] (50 mg/kg + low dose doxorubicin 2.5 mg/kg, CSC xenograft, day 14), the “histopathological finding in tumor tissue” value was “neoplastic mass in the dermal region which was completely necrosed and replaced with fibrous tissue”. The tumor size entry in experiment [1] (intratumoral, 50 mg/kg + doxorubicin low dose 2.5 mg/kg vs low dose doxorubicin alone, CD24^−/CD44^+ CSC xenograft) is given as “significantly decreased”. The “colocalization of GFP/p‐EGFR” value in experiment [2] (with doxorubicin low dose, CSC xenograft tumor tissue) is given as “decreased significantly”. Also, the “activation of apoptotic signaling mediators (GFP/p‐JNK, GFP/p‐p38 colocalization)” value in experiment [2] (with low dose doxorubicin, comparable with high dose doxorubicin alone) was “increased activation”. In addition, the “colocalization of GFP and CD44 (Pearson's correlation coefficient)” value in experiment [2] (with low dose of doxorubicin, CSC xenograft tumor tissue) was “comparable to the high dose of doxorubicin treated group”. For the same compound, the migratory potential entry in the experiment with MDA‐MB‐231 [3] and in the experiment with MDA‐MB‐468 [4] was “significant decrease” each time. Moreover, the IC50 in the experiment with MDA‐MB‐468 [5] is 15.4 µM; with MDA‐MB‐231 [7], 3.2 µM. In addition, the “expression of pro‐apoptotic genes Bax and Cytochrome‐C” value in experiment [6] was “marked increase”. Further, in experiment [8], the “expression level of human CD44 in tumor tissue” value is “significantly decreased”.

Source of the values: article PMC10961089, “Epidermal growth factor receptor inhibition potentiates chemotherapeutics‐mediated sensitization of metastatic breast cancer stem cells” (Cancer Reports, 2024).
